# According to PMC8998618, “A Pharmacokinetic and Metabolism Study of the TRPC6 Inhibitor SH045 in Mice by LC-MS/MS” (International Journal of Molecular Sciences, 2022):
# How the values were obtained:
# [1] = NADPH-dependent microsomal conversion, Michaelis-Menten kinetics (MLM); type: in vitro ADME, mouse; details: MLM 0.5 mg/mL protein, SH045 0.5 to 100 µM, Lineweaver-Burk
# Protocol: For determination of vmax and Michaelis-Menten constant Km of the NADPH-dependent microsomal depletion of SH045, incubations in MLM and HLM were performed. Testosterone instead of SH045 was used as positive control (Supplementary Materials SM6).
# Negative controls were obtained by omission of respective components. The overall velocity (v) of degradation was calculated from altered SH045 concentration (∆c) obtained from reduction peak area ratio of SH045 as: v = ∆c/incubation time × concentration of enzyme (nmol/min × mg). Mean maximum rate vmax and Km were calculated using Lineweaver-Burk transformation. […]
# The tissue binding of SH045 was analyzed exemplarily in lung, liver and kidney homogenate using ultrafiltration [5]. […] 20 µL of the mixture and the filtrate were analyzed for SH045. […]
# Testosterone (10 µM in ACN/DPBS 2/3, v/v) instead of SH045 was used as positive control and analyzed by an appropriate HPLC method with UV detection.
# Negative controls contained either no NADPH, no MLM or HLM or none of them. The overall velocity (v) of degradation was calculated from altered SH045 concentration (∆c) obtained from reduction peak area ratio of SH045 as: v = ∆c / incubation time × concentration of enzyme × volume (nmol/ min × mg). Mean maximum rate vmax and Michaelis-Menten constant Km were calculated using Lineweaver-Burk transformation. […]
# [2] = tested on: TRPC3/6 channels of rat pulmonary arterial smooth muscle cells (PASMC); set-up: method as in PMID 29522264; details: cited from earlier work
smiles,measurement,setting,value
"C=C[C@@](C)(O)CC[C@H]1C(=C)C[C@H](OC(=O)NC)[C@H]2C(C)(C)CCC[C@]12C [SH045, (1S,4S,4aR,8aS)-4-((S)-3-Hydroxy-3-methylpent-4-en-1-yl)-4a,8,8-trimethyl-3-methylenedecahydronaphthalen-1-yl methylcarbamate]",vmax,[1],9.8 ± 0.8 nmol/min/mg
same,Km at 10 min,"[1]; mouse, mouse liver microsomes",48.4 ± 3.9 µM
same,OAG-induced Ca^2+ entry,[2],inhibition
